In patent US20240409935A1, “Atg8ylation coordinates stress granule formation and mTOR inactivation in response to lysosomal damage” (priority 2023, published 2024):
Residues, ends and D or L forms follow the SMILES beside them. *: point of attachment. βNA = c1ccc2cc(N*)ccc2c1

What was measured:
[1] = tested on: G3BP1 puncta (stress granules) in U2OS cells; assay: HCM quantification of G3BP1 puncta (stress granule formation) in U2OS cells; assay type: cell-based, human; conditions: for SG formation response (G3BP1 puncta): agent alone for 30 min (2 mM LLOMe, 200 μM GPN, 400 μg/mL silica, 4 mM LOMe)
[2] = tested on: eIF2α (S51) phosphorylation; assay: Immunoblot analysis of eIF2α (S51) phosphorylation in U2OS cells; assay type: cell-based, human
TFEB = TFEB nuclear translocation (HCM) and TFEB (S142) phosphorylation in Huh7 cells; assay type: cell-based, human; conditions: 530 nM AZD6244 for 2 h, 1 mM LLOMe for 30 min
Protocol: FIGS. 2SA-2SG show the cellular transcriptional response during lysosomal damage. FIG. 2SA RNAseq analysis of the change on gene expression in HEK293T cells in response to 1 mM LLOMe treatment for 30 min. […] The dotted line indicates the significance cut-off (P<0.05). […] Ctrl, control (untreated cells). […] Blue: nuclei, Hoechst 33342. Red: anti-TFEB antibody, Alexa Fluor 568. White masks, computer-algorithm-defined cell boundaries. Pink masks, computer-identified nuclear TFEB based on the average intensity of Alexa Fluor 568 fluorescence. […] Red masks, computer-identified G3BP1 puncta. […] Red masks, computer-identified G3BP1 puncta. Ctrl, control (untreated cells). Data, means±SEM; HCM: n≥3 (each experiment: 500 valid primary objects/cells per Well, ≥5 Well s/sample). **p<0.01, ANOVA.

[3] = tested on: ALIX puncta in U2OS cells; assay: HCM quantification of ALIX puncta in U2OS cells; assay type: cell-based, human; conditions: 15 μM BAPTA-AM for 1 h, then 2 mM LLOMe for 30 min
Protocol: Cells Were treated with 2 mM LLOMe for 30 min. White masks, algorithm-defined cell boundaries; red masks, computer-identified G3BP1 puncta. […] Cells Were treated with 2 mM LLOMe for 30 min. White masks, algorithm-defined cell boundaries; green masks, computer-identified ALIX puncta. NT, untreated cells. Data, means±SEM (n=3); HCM: n≥3 (each experiment: 500 valid primary objects/cells per Well, ≥5 Well s/sample). †p≥0.05 (not significant), **p<0.01, ANOVA. See also FIG. 11.

[4] = tested on: G3BP1 puncta in THP-1 cells; assay: Stress granule formation in THP-1 cells; assay type: cell-based, human
Protocol: (§1) FIGS. 12SA-12SF. Stress granules are important for cell survival in response to lysosomal damage in disease states. […] White masks, algorithm-defined cell boundaries; red masks, computer-identified LTR puncta. […] White masks, algorithm-defined cell boundaries; green masks, computer-identified ALIX puncta. […] White masks, algorithm-defined cell boundaries; red masks, computer-identified G3BP1 puncta. […] Cells Were treated with 200 μg/mL silica for 4 h in the presence or absence of 100 nM ISRIB, and then stained with propidium iodide PI (dead cells) and Hoechst-33342 (total cells). White masks, algorithm-defined cell boundaries; red masks, computer-identified PI^+ nuclei. […]
How does SG formation affect cell fate during lysosomal damage? […] The inventors quantified the number of SGs using the canonical SG marker polyA RNA (Ivanov et al., 2019) via high-content microscopy (HCM) (FIG. S1B) and verified the depletion of SG formation in ΔΔG3BP1/2 cells when exposed to the lysosome-specific damaging agent L-leucyl-L-leucine methyl ester (LLOMe) (Jia et al., 2022; Tan et al., 2022; Thiele et al., 1990) (FIG. 7SB). A propidium iodide (PI) uptake assay measuring plasma membrane integrity (Crowley et al., 2016; Liu et al., 2023) was adapted to quantify cell survival during lysosomal damage using HCM. […]

ATF4 = ATF4 expression in THP-1 cells; assay type: cell-based, human
THP-1 cells = assay: Cell survival of THP-1 cells; assay type: cell-based
[5] = tested on: human peripheral blood monocyte-derived macrophages (hMDM); assay: PI uptake cell death assay (HCM) in hMDM; assay type: cell-based
Protocol: Cells Were treated with 2 mM LLOMe for 30 min, and then stained with propidium iodide (PI) (dead cells) and Hoechst-33342 (total cells). White masks, algorithm-defined cell boundaries (primary objects); red masks, computer-identified PI^+ nuclei (target objects). […] Cells Were treated with 2 mM LLOMe for 30 min. […] Cells Were treated with 2 mM in the presence or absence of 10 μg/ml cycloheximide (CHX) for 30 min, and then stained with PI (dead cells) and Hoechst-33342 (total cells). […] Scale bar, 10 μm. […] Cells Were treated with 2 mM LLOMe with or without CHX for 30 min, and then stained using Live/Dead™ stain kit (ThermoFisher). […] Cells Were treated with 2 mM LLOMe for 30 min, and then stained with PI (dead cells), Hoechst-33342 (total cells) or eIF4G. (i) HCM images: white masks, algorithm-defined cell boundaries; green masks, computer-identified eIF4G puncta; red masks, computer-identified PI^+ nuclei (target objects); (ii and iii) corresponding HCM quantification. […] Cells Were treated with 2 mM LLOMe for 30 min. […] CTR, control; NT, untreated cells. Data, means±SEM (n=3); HCM: n≥3 (each experiment: 500 valid primary objects/cells per Well, ≥5 Well s/sample). †p≥0.05 (not significant), *p<0.05, **p<0.01, ANOVA. See also FIG. 7S.
as §1

[6] = tested on: Galectin-3 puncta in BMM cells; assay type: cell-based, murine
mTOR = assay: mTOR/mTORC1 activity by phosphorylation of its substrates (4EBP1 S65, ULK1 S757, S6K1 T389) in U2OS cells; assay type: cell-based, human
[7] = tested on: NUFIP2, G3BP1 and TIA1 on lysosomes; assay type: cell-based, human
U2OS cells = assay: LDH release assay in U2OS cells; assay type: cell-based, human; conditions: LLOMe plus cycloheximide
Excerpt: How does SG formation affect cell fate during lysosomal damage? The inventors utilized SG deficient U2OS cells (human osteosarcoma epithelial cell line) genetically lacking both G3BP1 and G3BP2 (ΔΔG3BP1/2) (Nancy Kedersha et al., 2016), which are essential factors for SG formation (Guillén-Boixet et al., 2020; Nancy Kedersha et al., 2016; P. Yang et al., 2020) (FIG. 7SA). The inventors quantified the number of SGs using the canonical SG marker polyA RNA (Ivanov et al., 2019) via high-content microscopy (HCM) (FIG. S1B) and verified the depletion of SG formation in ΔΔG3BP1/2 cells when exposed to the lysosome-specific damaging agent L-leucyl-L-leucine methyl ester (LLOMe) (Jia et al., 2022; Tan et al., 2022; Thiele et al., 1990) (FIG. 7SB). A propidium iodide (PI) uptake assay measuring plasma membrane integrity (Crowley et al., 2016; Liu et al., 2023) was adapted to quantify cell survival during lysosomal damage using HCM. […] This was additionally confirmed by using a lactate dehydrogenase (LDH) release assay measuring non-specific leak from cells (Chan et al., 2013; Kumar et al., 2018) (FIG. 1B). […] Elevated cell death, as quantified by PI uptake assay (FIG. 1F (i, iii)) and the LDH release assay (FIG. 1G), was detected in G3BP1/2^DKD in response to LLOMe treatment. […]

[8] = tested on: human peripheral blood monocyte-derived macrophages (hMDM); conditions: 1 μg/ml cycloheximide
[9] = tested on: human peripheral blood monocyte-derived macrophages (hMDM); conditions: hemozoin (10.0 mg/mL) 4 h, 1 μg/ml cycloheximide
PKR = assay: LysoIP immunoblotting of PKR and eIF2α phosphorylation on damaged lysosomes from HEK293T cells; assay type: cell-based, human; conditions: 1 mM LLOMe with 210 nM imidazolo-oxindole C16 for 1 h

Nc1ncc2[nH]cnc2n1 [2-AP, 2-aminopurine]
SG formation in response to LLOMe treatment, with 2-AP ([1]; 2-AP for 1 h followed by 2 mM LLOMe for 30 min): inhibited, in a dose-response fashion, SG formation
eIF2α phosphorylation in cells treated with LLOMe, with PKR inhibitor ([2]; U2OS cells, 2-AP for 1 h followed by 2 mM LLOMe for 30 min): inhibited eIF2α phosphorylation

Cn1cnc2c(F)c(Nc3ccc(Br)cc3Cl)c(C(=O)NOCCO)cc21 [AZD6244]
nuclear translocation of TFEB and dephosphorylation at Ser142: lysosomal damage compared with AZD6244 (TFEB): equal in magnitude

CC(=O)OCOC(=O)CN(CC(=O)OCOC(C)=O)c1ccccc1OCCOc1ccccc1N(CC(=O)OCOC(C)=O)CC(=O)OCOC(C)=O [BAPTA-AM]
SG formation during lysosomal damage, with BAPTA-AM ([1]; 15 μM BAPTA-AM for 1 h, then 2 mM LLOMe for 30 min): significant reduction in SG formation
eIF2α phosphorylation during lysosomal damage, with BAPTA-AM ([2]; U2OS cells, 15 μM BAPTA-AM for 1 h, then 2 mM LLOMe for 30 min): significant reduction
ALIX puncta formation upon lysosomal damage, with BAPTA-AM [3]: decrease in ALIX puncta formation

NCC(=O)N[C@@H](Cc1ccccc1)C(=O)Nc1ccc2ccccc2c1 [GPN, glycyl-L-phenylalanine-2-naphthyl amide] (H-Gly-Phe-βNA)
SG formation response (G3BP1 puncta) [1]: strong SG formation response

O=C(COc1ccc(Cl)cc1)N[C@H]1CC[C@@H](NC(=O)COc2ccc(Cl)cc2)CC1 [ISRIB, N,N′-((1s,4s)-cyclohexane-1,4-diyl)bis(2-(4-chlorophenoxy)acetamide)]
SG formation upon lysosomal damage, with ISRIB [4]: prevented SG formation
ATF4 expression levels upon lysosomal damage, with ISRIB (ATF4): reduction in ATF4 expression levels
cell survival upon lysosomal damage, with ISRIB (THP-1 cells): decrease in cell survival
cell death by PI uptake assay during tau oligomer treatment, with ISRIB ([5]; 10 μg/mL tau oligomer for 4 h, 100 nM ISRIB): comparable effect on cell death
cell death by PI uptake assay during silica treatment, with ISRIB ([5]; 200 μg/mL silica for 4 h, 100 nM ISRIB): comparable effect on cell death

COC(=O)[C@@H](N)CC(C)C [LOMe]
SG formation response (G3BP1 puncta) [1]: did not induce SG formation

O=[As][O-].[Na+] [arsenite, NaAsO2]
lysosomal damage monitored by Galectin-3 response [6]: did not induce lysosomal damage
eIF2α phosphorylation under arsenic stress [2]: led to eIF2α phosphorylation
mTORC1 activity under arsenic stress (mTOR): activating mTORC1 activity
enrichment of NUFIP2, G3BP1 and TIA1 on purified lysosomes [7]: not on lysosomes purified from cells treated with arsenite

C[C@@H]1C[C@@H]([C@H](O)CC2CC(=O)NC(=O)C2)C(=O)[C@@H](C)C1 [cycloheximide]
SG formation (G3BP1 puncta) following LLOMe treatment, with cycloheximide [1]: inhibited SG formation
cell survival by LDH release, with cycloheximide during lysosomal damage (U2OS cells): increased LDH release
cell death by PI uptake assay during LLOMe treatment, with cycloheximide ([5]; 2 mM LLOMe with 10 μg/ml cycloheximide for 30 min): significant increase in cell death
cell death (AMNIS, Live/Dead) during tau oligomer treatment, with cycloheximide ([8]; 10 μg/mL tau oligomer for 4 h): augmented cell death
cell death (AMNIS, Live/Dead) during silica treatment, with cycloheximide ([8]; 200 μg/mL silica for 4 h): augmented cell death
cell death by LDH release assay in response to hemozoin, with cycloheximide [9]: increased cell death

O=C1Nc2ccc3ncsc3c2/C1=C/c1cnc[nH]1 [imidazolo-oxindole C16]
SG formation during lysosomal damage, with C16 ([1]; 210 nM imidazolo-oxindole C16 for 2 h followed by 2 mM LLOMe for 30 min): reduced SG formation
phosphorylation of both PKR and eIF2α on damaged lysosomes, with C16 (PKR): effectively blocked
